From patent US12391825B2, “Thermoplastic polymer composition for micro 3D printing and uses thereof” (priority 2020, dated 2025)

System: cardiac tissues
Conditions: compared with cardiac tissue without compound (baseline)
Procedure: Human iPSC cardiomyocytes (CMs) were differentiated from hiPSC line BJ1D by using monolayer differentiation protocols (Lian, et al. 2013; Yang, et al. 2008). The disassociation of cardiomyocytes into single cells was performed at day 21 of stem cell differentiation, using previous methods (Yang, et al. 2008). The disassociated cells and cardiac fibroblast (Lonza, NHCF-V) were mixed to reach a cell number ratio of 10:1. The resultant cells were remixed in a collagen hydrogel at a cell number of 5.5×10^7 cells/mL. […]
Cardiac cultured in a multiwell plate was placed in a chamber (37° C., 5% CO2) of fluorescent microscope (Olympus Corporation). ⅓rd of the media was extracted from one well of the multiwell-plate device. […] After 10-15 min, videos in the green and red channel were recorded. The force and Ca^2+ transients were measured under electrical stimulation at 1 Hz. […] Ca^2+ transients were recorded under fluorescent microscope using a green-light channel (λex490 nm/λem525 nm). The ratio of peak fluorescence to baseline fluorescence intensity was measured the relative Ca^2+ change in the tissues by Image J software (NIH) as described previously (Zhao, et al. 2019). […]
With built-in sensors and electrodes, the contractile force of tissues can be measured in situ. […]

## CCN(CC)CC(=O)Nc1c(C)cccc1C [lidocaine]
  electrical excitability of a cardiac tissue: inhibited
